Assay results reported in paper PMC8766756, “Insights on Cancer Cell Inhibition, Subcellular Activities, and Kinase Profile of Phenylacetamides Pending 1H-Imidazol-5-One Variants” (Frontiers in Pharmacology, 2022).
Where “and” joins values, the source holds several entries; their conditions need not be identical. Identical values can stand only once.

What was measured:
Assay in all cases: PamChip tyrosine kinase microarray
Format in all cases: biochemical
Conditions in all cases: 0.1 µM, HL60 lysate
FAK2 (Q14289) = biological target: T1, FAK2 (Q14289) (Homo sapiens, UniProt Q14289)
T1 construct: purchased PamGene (PamChip PTK array, Upstream Kinase Analysis)
T1 sequence (Q14289 whole entry): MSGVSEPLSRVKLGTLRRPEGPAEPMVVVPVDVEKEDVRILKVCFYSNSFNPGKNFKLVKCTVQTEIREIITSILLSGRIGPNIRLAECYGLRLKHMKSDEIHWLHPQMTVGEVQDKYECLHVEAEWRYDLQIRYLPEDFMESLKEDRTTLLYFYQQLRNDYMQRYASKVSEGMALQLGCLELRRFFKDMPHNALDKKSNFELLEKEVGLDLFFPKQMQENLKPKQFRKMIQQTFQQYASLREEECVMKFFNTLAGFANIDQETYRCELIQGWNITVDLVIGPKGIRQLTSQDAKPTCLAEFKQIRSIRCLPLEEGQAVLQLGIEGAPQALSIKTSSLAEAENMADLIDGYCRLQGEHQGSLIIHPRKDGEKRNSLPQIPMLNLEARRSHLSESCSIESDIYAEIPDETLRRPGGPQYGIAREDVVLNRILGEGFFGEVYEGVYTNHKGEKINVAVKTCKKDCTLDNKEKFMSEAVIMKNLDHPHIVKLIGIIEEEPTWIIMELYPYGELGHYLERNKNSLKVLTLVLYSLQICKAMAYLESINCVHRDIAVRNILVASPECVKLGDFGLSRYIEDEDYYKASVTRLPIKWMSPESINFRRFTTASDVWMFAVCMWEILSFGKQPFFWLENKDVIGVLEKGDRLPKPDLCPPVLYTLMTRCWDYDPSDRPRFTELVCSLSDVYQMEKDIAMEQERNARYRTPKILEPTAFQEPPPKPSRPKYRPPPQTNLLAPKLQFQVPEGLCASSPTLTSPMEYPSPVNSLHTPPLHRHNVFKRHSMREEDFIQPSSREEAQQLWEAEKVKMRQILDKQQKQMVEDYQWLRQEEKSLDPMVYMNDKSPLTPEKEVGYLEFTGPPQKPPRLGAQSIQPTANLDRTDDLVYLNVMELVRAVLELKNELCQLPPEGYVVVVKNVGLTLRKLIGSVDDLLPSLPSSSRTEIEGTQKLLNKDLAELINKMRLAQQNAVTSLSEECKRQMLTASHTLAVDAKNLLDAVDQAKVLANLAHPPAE
Method in brief: (§1)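 HL60 (AML) cell lysate was spiked with compound at 0.001, 0.01, 0.1, 1, 10 and 50 µM, or 2% v/v DMSO as control, then profiled in technical replicates on a tyrosine kinase peptide array of 196 phosphosites. Kinase activity was inferred from peptide-set changes using an upstream kinase tool.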

Brk (Q13882) = biological target: T2, Brk (Q13882) (Homo sapiens, UniProt Q13882)
T2 construct: purchased PamGene (PamChip PTK array, Upstream Kinase Analysis)
Method in brief: as §1

EphA7 (Q15375) = biological target: T3, EphA7 (Q15375) (Homo sapiens, UniProt Q15375)
T3 construct: purchased PamGene (PamChip PTK array, Upstream Kinase Analysis)
Method in brief: as §1

PDGFR[alpha] (P16234) = biological target: T4, PDGFR[alpha] (P16234) (Homo sapiens, UniProt P16234)
T4 construct: purchased PamGene (PamChip PTK array, Upstream Kinase Analysis)
T4 sequence (P16234 24-1089): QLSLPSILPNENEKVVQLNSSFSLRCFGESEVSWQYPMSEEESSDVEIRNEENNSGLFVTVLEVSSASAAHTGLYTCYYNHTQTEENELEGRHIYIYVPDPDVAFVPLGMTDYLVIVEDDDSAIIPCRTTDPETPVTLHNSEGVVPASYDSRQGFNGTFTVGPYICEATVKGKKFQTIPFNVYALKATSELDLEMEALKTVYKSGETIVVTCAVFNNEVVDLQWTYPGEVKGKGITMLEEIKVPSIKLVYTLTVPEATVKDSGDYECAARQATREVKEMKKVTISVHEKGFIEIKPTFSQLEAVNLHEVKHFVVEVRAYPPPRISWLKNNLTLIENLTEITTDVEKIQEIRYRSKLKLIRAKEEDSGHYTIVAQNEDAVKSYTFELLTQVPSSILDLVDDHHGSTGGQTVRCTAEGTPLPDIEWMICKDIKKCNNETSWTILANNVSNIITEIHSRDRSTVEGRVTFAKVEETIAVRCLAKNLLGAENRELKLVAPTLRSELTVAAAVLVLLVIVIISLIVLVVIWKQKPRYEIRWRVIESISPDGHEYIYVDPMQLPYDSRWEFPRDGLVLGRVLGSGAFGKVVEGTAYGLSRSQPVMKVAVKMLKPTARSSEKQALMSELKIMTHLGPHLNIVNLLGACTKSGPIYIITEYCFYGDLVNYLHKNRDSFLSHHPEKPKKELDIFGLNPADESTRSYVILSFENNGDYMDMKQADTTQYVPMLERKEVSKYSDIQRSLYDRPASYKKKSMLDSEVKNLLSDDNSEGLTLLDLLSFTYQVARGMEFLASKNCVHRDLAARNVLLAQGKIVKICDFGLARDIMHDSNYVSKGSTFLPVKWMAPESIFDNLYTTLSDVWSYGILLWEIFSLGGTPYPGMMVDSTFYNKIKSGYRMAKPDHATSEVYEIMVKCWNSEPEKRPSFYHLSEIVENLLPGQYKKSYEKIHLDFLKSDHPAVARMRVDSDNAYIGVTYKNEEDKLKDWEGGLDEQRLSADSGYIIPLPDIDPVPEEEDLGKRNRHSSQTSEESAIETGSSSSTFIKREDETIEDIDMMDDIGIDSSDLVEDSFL
Method in brief: as §1

EphA2 (P29317) = biological target: T5, EphA2 (P29317) (Homo sapiens, UniProt P29317)
T5 construct: purchased PamGene (PamChip PTK array, Upstream Kinase Analysis)
Method in brief: as §1

InSR (P06213) = biological target: T6, InSR (P06213) (Homo sapiens, UniProt P06213)
T6 construct: purchased PamGene (PamChip PTK array, Upstream Kinase Analysis)
T6 sequence (P06213 28-1382): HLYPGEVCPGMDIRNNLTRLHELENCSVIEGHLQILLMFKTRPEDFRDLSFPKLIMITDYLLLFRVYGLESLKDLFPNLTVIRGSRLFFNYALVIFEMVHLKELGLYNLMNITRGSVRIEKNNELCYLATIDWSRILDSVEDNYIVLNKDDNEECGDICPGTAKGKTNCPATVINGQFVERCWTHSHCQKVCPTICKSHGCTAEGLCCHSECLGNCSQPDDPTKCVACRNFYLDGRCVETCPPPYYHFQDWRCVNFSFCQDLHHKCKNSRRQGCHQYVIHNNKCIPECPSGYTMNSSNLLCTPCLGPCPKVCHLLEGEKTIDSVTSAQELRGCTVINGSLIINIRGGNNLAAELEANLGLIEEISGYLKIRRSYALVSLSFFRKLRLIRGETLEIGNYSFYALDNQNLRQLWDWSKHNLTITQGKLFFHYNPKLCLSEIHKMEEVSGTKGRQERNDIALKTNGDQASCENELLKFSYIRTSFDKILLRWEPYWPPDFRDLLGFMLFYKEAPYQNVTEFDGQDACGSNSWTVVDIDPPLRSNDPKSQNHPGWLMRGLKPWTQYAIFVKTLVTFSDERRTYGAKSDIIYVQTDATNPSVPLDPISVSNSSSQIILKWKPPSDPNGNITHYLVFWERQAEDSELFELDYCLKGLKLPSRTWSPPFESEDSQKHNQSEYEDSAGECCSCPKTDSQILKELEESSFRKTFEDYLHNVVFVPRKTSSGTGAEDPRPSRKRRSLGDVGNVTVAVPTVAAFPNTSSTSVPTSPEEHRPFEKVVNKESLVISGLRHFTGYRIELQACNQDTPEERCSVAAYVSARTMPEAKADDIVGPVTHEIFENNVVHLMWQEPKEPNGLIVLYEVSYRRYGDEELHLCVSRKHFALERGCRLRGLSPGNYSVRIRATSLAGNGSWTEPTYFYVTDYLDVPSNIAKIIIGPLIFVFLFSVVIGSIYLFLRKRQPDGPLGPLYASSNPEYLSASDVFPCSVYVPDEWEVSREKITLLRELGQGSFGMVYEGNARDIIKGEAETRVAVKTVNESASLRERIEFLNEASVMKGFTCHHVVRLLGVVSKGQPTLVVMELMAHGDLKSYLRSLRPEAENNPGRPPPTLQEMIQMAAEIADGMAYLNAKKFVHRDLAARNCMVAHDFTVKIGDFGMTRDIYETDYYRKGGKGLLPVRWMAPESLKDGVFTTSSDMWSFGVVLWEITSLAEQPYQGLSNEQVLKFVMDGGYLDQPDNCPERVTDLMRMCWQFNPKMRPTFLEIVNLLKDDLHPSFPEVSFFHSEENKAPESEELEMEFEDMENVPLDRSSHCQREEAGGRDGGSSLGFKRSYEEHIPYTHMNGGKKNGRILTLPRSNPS
Method in brief: as §1

Ron (Q04912) = biological target: T7, Ron (Q04912) (Homo sapiens, UniProt Q04912)
T7 construct: purchased PamGene (PamChip PTK array, Upstream Kinase Analysis)
T7 sequence (Q04912 25-1400): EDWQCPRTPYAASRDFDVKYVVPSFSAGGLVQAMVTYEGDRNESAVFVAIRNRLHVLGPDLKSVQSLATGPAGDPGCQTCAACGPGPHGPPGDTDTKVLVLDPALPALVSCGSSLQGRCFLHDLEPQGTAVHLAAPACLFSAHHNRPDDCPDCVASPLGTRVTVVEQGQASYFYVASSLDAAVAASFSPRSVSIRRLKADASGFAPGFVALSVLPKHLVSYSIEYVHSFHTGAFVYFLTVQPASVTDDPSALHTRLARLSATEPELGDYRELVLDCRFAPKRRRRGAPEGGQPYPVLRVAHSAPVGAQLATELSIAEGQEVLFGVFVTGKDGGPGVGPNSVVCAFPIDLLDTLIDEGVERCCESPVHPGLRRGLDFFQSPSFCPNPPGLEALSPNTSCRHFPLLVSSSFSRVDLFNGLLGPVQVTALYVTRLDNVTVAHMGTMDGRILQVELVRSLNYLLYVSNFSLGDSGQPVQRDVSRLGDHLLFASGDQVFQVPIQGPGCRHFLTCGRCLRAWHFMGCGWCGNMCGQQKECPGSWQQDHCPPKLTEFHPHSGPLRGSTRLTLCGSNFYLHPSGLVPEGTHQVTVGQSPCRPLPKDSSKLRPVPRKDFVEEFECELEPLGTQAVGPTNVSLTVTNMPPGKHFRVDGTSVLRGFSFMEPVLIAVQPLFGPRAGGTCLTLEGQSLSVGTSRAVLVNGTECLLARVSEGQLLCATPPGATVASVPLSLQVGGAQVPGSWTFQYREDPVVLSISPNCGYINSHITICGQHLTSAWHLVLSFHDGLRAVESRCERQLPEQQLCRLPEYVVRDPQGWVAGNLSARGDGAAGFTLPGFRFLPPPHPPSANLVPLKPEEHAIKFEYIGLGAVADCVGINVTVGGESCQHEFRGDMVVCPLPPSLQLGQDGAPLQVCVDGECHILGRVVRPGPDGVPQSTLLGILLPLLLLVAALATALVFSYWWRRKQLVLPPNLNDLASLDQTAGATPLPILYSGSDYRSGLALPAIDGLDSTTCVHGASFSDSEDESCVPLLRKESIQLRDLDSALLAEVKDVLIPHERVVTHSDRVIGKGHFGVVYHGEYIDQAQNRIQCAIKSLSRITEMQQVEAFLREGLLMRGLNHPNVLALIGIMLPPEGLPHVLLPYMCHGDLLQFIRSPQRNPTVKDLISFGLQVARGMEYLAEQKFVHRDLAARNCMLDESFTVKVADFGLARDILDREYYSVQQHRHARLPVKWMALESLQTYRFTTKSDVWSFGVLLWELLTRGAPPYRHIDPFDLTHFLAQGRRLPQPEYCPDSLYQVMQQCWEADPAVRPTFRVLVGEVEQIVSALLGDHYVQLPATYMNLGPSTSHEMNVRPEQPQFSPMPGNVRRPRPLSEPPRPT
Method in brief: as §1

CSK (P41240) = biological target: T8, CSK (P41240) (Homo sapiens, UniProt P41240)
T8 construct: purchased PamGene (PamChip PTK array, Upstream Kinase Analysis)
Method in brief: as §1

COc1ccc(/C=C2\N=C(C)N(c3ccc(CC(=O)NCc4ccccc4)cc3)C2=O)cc1 [Compound 4c, (Z)-N-Benzyl-2-(4-(4-(4-methoxybenzylidene)-2-methyl-5-oxo-4,5-dihydro-1H-imidazol-1-yl)phenyl)acetamide]
Mean Final score (Kinase score) (FAK2 (Q14289)): 2.241 | Mean Kinase Statistic (FAK2 (Q14289)): -1.142 | Mean Significance Score (FAK2 (Q14289)): 2.048 | Mean Specificity Score (FAK2 (Q14289)): 0.216 | Mean Final score (Kinase score) (Brk (Q13882)): 2.481 | Mean Kinase Statistic (Brk (Q13882)): -1.21 | Mean Significance Score (Brk (Q13882)): 2.048 | Mean Specificity Score (Brk (Q13882)): 0.446 | Mean Final score (Kinase score) (EphA7 (Q15375)): 0.8806 | Mean Kinase Statistic (EphA7 (Q15375)): -0.6736 | Mean Significance Score (EphA7 (Q15375)): 0.8204 | Mean Specificity Score (EphA7 (Q15375)): 0.0595 | Mean Final score (Kinase score) (PDGFR[alpha] (P16234)): 1.95 | Mean Kinase Statistic (PDGFR[alpha] (P16234)): -1.208 | Mean Significance Score (PDGFR[alpha] (P16234)): 1.701 | Mean Specificity Score (PDGFR[alpha] (P16234)): 0.3388 | Mean Significance Score (EphA2 (P29317)): 1.975 | Mean Specificity Score (EphA2 (P29317)): 0.9606 | Mean Final score (Kinase score) (EphA2 (P29317); listed as KIM-161): 3.09 and 3.095 | Mean Final score (Kinase score) (InSR (P06213)): 2.117 | Mean Kinase Statistic (InSR (P06213)): -0.9506 | Mean Significance Score (InSR (P06213)): 2.048 | Mean Specificity Score (InSR (P06213)): 0.02144 | Mean Significance Score (Ron (Q04912)): 2.048 | Mean Specificity Score (Ron (Q04912)): 0.9095 | Mean Final score (Kinase score) (Ron (Q04912); listed as KIM-161): 2.96 and 2.957 | Mean Significance Score (CSK (P41240)): 2.048 | Mean Specificity Score (CSK (P41240)): 1.0649 | Mean Final score (Kinase score) (CSK (P41240); listed as KIM-161): 3.09
